Reference: ChEMBL document CHEMBL2163265, “Antifungal peptides at membrane interaction” (Eur J Med Chem, 2012)
The source made the active and inactive calls. The calls are words filed in the database; no cut-off is given here. Where a SMILES comes first, the peptide text is derived from it.

Columns and labels:
Candida albicans [1] = assay: Binding affinity to Candida albicans ATCC 90028 membrane at 2 mg/ml incubated for 15 mins on ice followed by 45 mins in room temperature by fluorescence microscopic analysis; type: functional
Candida albicans [2] = assay: Binding affinity to Candida albicans MYA-2876 membrane at 2 mg/ml incubated for 15 mins on ice followed by 45 mins in room temperature by fluorescence microscopic analysis; type: functional

N=C(N)NCCC[C@@H]1NC(=O)[C@H](CCCNC(=N)N)NC(=O)[C@H](Cc2c[nH]c3ccccc23)NC(=O)[C@H](Cc2c[nH]c3ccccc23)NC(=O)[C@H](CCCNC(=N)N)NC(=O)[C@H](Cc2ccccc2)NC(=O)[C@H](Cc2c[nH]cn2)NC1=O (cyclo(FRWWRRH))
Activity (Candida albicans [1]): Active
Activity (Candida albicans [2]): Active
